What follows are molecules tested against T1, PIP4K2C (Homo sapiens, UniProt Q8TBX8) (assay: HiBiT PIP4K2C degradation assay in MOLT-4 cells (endogenous PIP4K2C C-terminally tagged with HiBiT)). Settings: 6 hours of incubation time, rather than 24 hours; MOLT-4, top concentration 10 micromolar; read-out: HiBIT-degradation MOLT4 PIP4k2C DC50 (6 hours, marked *).
T1 sequence (Q8TBX8 1-421): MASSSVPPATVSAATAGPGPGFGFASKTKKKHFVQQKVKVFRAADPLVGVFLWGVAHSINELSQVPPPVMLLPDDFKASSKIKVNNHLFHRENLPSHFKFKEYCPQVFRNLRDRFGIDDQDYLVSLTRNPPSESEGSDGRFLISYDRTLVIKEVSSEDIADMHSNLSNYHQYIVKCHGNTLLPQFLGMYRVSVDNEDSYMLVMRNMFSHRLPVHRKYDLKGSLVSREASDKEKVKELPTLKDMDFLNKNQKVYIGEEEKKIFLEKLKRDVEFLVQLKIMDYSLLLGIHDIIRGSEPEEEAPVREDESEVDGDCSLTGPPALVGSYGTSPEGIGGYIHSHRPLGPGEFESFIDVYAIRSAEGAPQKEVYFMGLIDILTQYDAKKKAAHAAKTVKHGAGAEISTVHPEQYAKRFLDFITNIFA
Assay type: cell-based
Parameters: untagged in primary human PBMCs and monocyte-derived dendritic cells
In short: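 Cells are plated onto compound dilutions (10 points, 3-fold, top 10 micromolar) and incubated 24 or 6 hours at 37 C. Lytic HiBiT detection then quantifies tagged endogenous PIP4K2C in MOLT-4, and a Hill fit yields DC50.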

DC50 | SMILES
< 500 nM | O=C1CCC(Nc2ccc(C3CCN([C@H]4CC[C@H](NC(=O)[C@H]5CC[C@H](Nc6ncc(F)c(-c7ccnc(N8CCCCC8=O)c7)n6)CC5)CC4)CC3)c(F)c2)C(=O)N1 (stereo partly drawn) [Compound 549, trans-N-(trans-4-(4-(4-((2,6-dioxopiperidin-3-yl)amino)-2-fluorophenyl)piperidin-1-yl)cyclohexyl)-4-((5-fluoro-4-(2-(2-oxopiperidin-1-yl)pyridin-4-yl)pyrimidin-2-yl)amino)cyclohexane-1-carboxamide]
< 500 nM | O=C1CCC(Nc2ccc(C3CCN([C@H]4CC[C@H](NC(=O)[C@H]5CC[C@H](Nc6ncc(F)c(-c7ccnc(N8CCCOC8=O)c7)n6)CC5)CC4)CC3)c(F)c2)C(=O)N1 (stereo partly drawn) [Compound 550, trans-N-((trans)-4-(4-(4-((2,6-dioxopiperidin-3-yl)amino)-2-fluorophenyl)piperidin-1-yl)cyclohexyl)-4-((5-fluoro-4-(2-(2-oxo-1,3-oxazinan-3-yl)pyridin-4-yl)pyrimidin-2-yl)amino)cyclohexane-1-carboxamide]
< 500 nM | Cc1ccc(=O)n(-c2cccc(-c3nc(N[C@H]4CC[C@H](C(=O)N[C@H]5CC[C@H](N6CCC(c7ccc(NC8CCC(=O)NC8=O)cc7F)CC6)CC5)CC4)ncc3F)c2)c1 (stereo partly drawn) [Compound 551, trans-N-(trans-4-(4-(4-((2,6-dioxopiperidin-3-yl)amino)-2-fluorophenyl)piperidin-1-yl)cyclohexyl)-4-((5-fluoro-4-(3-(5-methyl-2-oxopyridin-1 (2H)-yl)phenyl)pyrimidin-2-yl)amino)cyclohexane-1-carboxamide]
< 500 nM | O=C1CCC(Nc2ccc(C3CCN([C@H]4CC[C@H](C(=O)N[C@H]5CC[C@H](Nc6ncc(F)c(-c7cccc(N8CCCCC8)c7)n6)CC5)CC4)CC3)c(F)c2)C(=O)N1 (stereo partly drawn) [Compound 556, trans-(1r,4R)-4-(4-(4-((2,6-dioxopiperidin-3-yl)amino)-2-fluorophenyl)piperidin-1-yl)-N-((1r,4R)-4-((5-fluoro-4-(3-(piperidin-1-yl)phenyl)pyrimidin-2-yl)amino)cyclohexyl)cyclohexane-1-carboxamide]
< 500 nM | O=C1CCC(Nc2ccc(N3CCN([C@H]4CC[C@H](NC(=O)[C@H]5CC[C@H](Nc6ncc(F)c(-c7cccc(C8CC8)c7)n6)CC5)CC4)CC3)c(F)c2)C(=O)N1 (stereo partly drawn) [Compound 557, trans-(1r,4R)-4-((4-(3-cyclopropylphenyl)-5-fluoropyrimidin-2-yl)amino)-N-((1r,4R)-4-(4-(4-((2,6-dioxopiperidin-3-yl)amino)-2-fluorophenyl)piperazin-1-yl)cyclohexyl)cyclohexane-1-carboxamide]
< 500 nM | O=C1CCC(Nc2ccc(C3CCN([C@H]4CC[C@H](C(=O)N[C@H]5CC[C@H](Nc6ncc(F)c(-c7cccc(C8CC8)c7)n6)CC5)CC4)CC3)c(F)c2)C(=O)N1 (stereo partly drawn) [Compound 558, trans-(1r,4R)—N-((1r,4R)-4-((4-(3-cyclopropylphenyl)-5-fluoropyrimidin-2-yl)amino)cyclohexyl)-4-(4-(4-((2,6-dioxopiperidin-3-yl)amino)-2-fluorophenyl)piperidin-1-yl)cyclohexane-1-carboxamide]
< 500 nM | O=C1CCC(Nc2ccc(N3CCN([C@H]4CC[C@H](C(=O)N[C@H]5CC[C@H](Nc6ncc(F)c(-c7cccc(C8CC8)c7)n6)CC5)CC4)CC3)c(F)c2)C(=O)N1 (stereo partly drawn) [Compound 559, trans-N-(trans-4-((4-(3-cyclopropylphenyl)-5-fluoropyrimidin-2-yl)amino)cyclohexyl)-4-(4-(4-((2,6-dioxopiperidin-3-yl)amino)-2-fluorophenyl)piperazin-1-yl)cyclohexane-1-carboxamide]

Continued, molecule first:

SMILES | DC50
O=C1CCC(Nc2ccc(C3CCN(CC4CCN(C(=O)[C@H]5CC[C@H](Nc6ncc(F)c(-c7cccc(N8CCOCC8=O)c7)n6)CC5)CC4)CC3)c(F)c2)C(=O)N1 (stereo partly drawn) [Compound 552, trans-3-((3-fluoro-4-(1-((1-(4-((5-fluoro-4-(3-(3-oxomorpholino)phenyl)pyrimidin-2-yl)amino)cyclohexane-1-carbonyl)piperidin-4-yl)methyl)piperidin-4-yl)phenyl)amino)piperidine-2,6-dione] | < 500 nM
O=C1CCC(Nc2ccc(N3CCN(CC4CCN(C(=O)[C@H]5CC[C@H](Nc6ncc(F)c(-c7cccc(N8CCOCC8=O)c7)n6)CC5)CC4)CC3)c(F)c2)C(=O)N1 (stereo partly drawn) [Compound 553, trans-3-((3-fluoro-4-(4-((1-(4-((5-fluoro-4-(3-(3-oxomorpholino)phenyl)pyrimidin-2-yl)amino)cyclohexane-1-carbonyl)piperidin-4-yl)methyl)piperazin-1-yl)phenyl)amino)piperidine-2,6-dione] | < 500 nM
O=C1CCC(Nc2ccc(C3CCN(CC4CCN(C(=O)[C@H]5CC[C@H](Nc6ncc(F)c(-c7cccc(C8CC8)c7)n6)CC5)CC4)CC3)c(F)c2)C(=O)N1 (stereo partly drawn) [Compound 554, trans-3-((4-(1-((1-(4-((4-(3-cyclopropylphenyl)-5-fluoropyrimidin-2-yl)amino)cyclohexane-1-carbonyl)piperidin-4-yl)methyl)piperidin-4-yl)-3-fluorophenyl)amino)piperidine-2,6-dione] | < 500 nM
O=C1CCC(Nc2ccc(N3CCN(CC4CCN(C(=O)[C@H]5CC[C@H](Nc6ncc(F)c(-c7cccc(C8CC8)c7)n6)CC5)CC4)CC3)c(F)c2)C(=O)N1 (stereo partly drawn) [Compound 555, trans-3-[4-[4-[[1-[4-[[4-(3-cyclopropylphenyl)-5-fluoro-pyrimidin-2-yl]amino]cyclohexanecarbonyl]-4-piperidyl]methyl]piperazin-1-yl]-3-fluoro-anilino]piperidine-2,6-dione] | < 500 nM
O=C1CCC(Nc2ccc(N3CCN(C[C@H]4CC[C@H](CC(=O)N[C@H]5CC[C@H](Nc6ncc(F)c(-c7cccc(N8CCCCC8=O)c7)n6)CC5)CC4)CC3)c(F)c2)C(=O)N1 (stereo partly drawn) [Compound 560, trans-2-((1r,4R)-4-((4-(4-((2,6-dioxopiperidin-3-yl)amino)-2-fluorophenyl)piperazin-1-yl)methyl)cyclohexyl)-N-((1r,4R)-4-((5-fluoro-4-(3-(2-oxopiperidin-1-yl)phenyl)pyrimidin-2-yl)amino)cyclohexyl)acetamide] | < 500 nM
O=C1CCC(Nc2ccc(N3CCN(C[C@H]4CC[C@H](CC(=O)N[C@H]5CC[C@H](Nc6ncc(F)c(-c7cccc(N8CCCOC8=O)c7)n6)CC5)CC4)CC3)c(F)c2)C(=O)N1 (stereo partly drawn) [Compound 561, trans-2-((1r,4R)-4-((4-(4-((2,6-dioxopiperidin-3-yl)amino)-2-fluorophenyl)piperazin-1-yl)methyl)cyclohexyl)-N-((1r,4R)-4-((5-fluoro-4-(3-(2-oxo-1,3-oxazinan-3-yl)phenyl)pyrimidin-2-yl)amino)cyclohexyl)acetamide] | < 500 nM
O=C1CCC(Nc2ccc(N3CCN(C[C@H]4CC[C@H](CC(=O)N[C@H]5CC[C@H](Nc6ncc(F)c(-c7cccc(N8CCOCC8=O)c7)n6)CC5)CC4)CC3)c(F)c2)C(=O)N1 (stereo partly drawn) [Compound 562, trans-2-((1r,4R)-4-((4-(4-((2,6-dioxopiperidin-3-yl)amino)-2-fluorophenyl)piperazin-1-yl)methyl)cyclohexyl)-N-((1r,4R)-4-((5-fluoro-4-(3-(3-oxomorpholino)phenyl)pyrimidin-2-yl)amino)cyclohexyl)acetamide] | < 500 nM

— patent publication US20260355196A1, “INHIBITORS AND DEGRADERS OF PIP4K PROTEIN” (Larkspur Biosciences, Inc., priority 2023, published 2026)
